From patent publication US9302993B2, “8-hydroxy quinoline derivatives” (PRANA BIOTECHNOLOGY LIMITED, priority 2002, dated 2016) come the findings set out here.

In general, IC50 refers to the concentration that inhibits the measured activity by half.

The target in data set [1] is T1, hydrogen peroxide generation by Aβ in the presence of copper (Homo sapiens, UniProt P05067).
T1 construct: The reaction solutions contained Aβ 1-42 at concentrations in the range of 50 nM to 1 μM
Put plainly: Fluorometric H2O2 assay (Assay 1). The class given is biochemical. The following applies: DCF/HRP, 37 C 60 min, several values in one cell = repeat determinations. In outline:
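Aβ1-42 (50 nM–1 μM) with Cu-glycine (2 Cu-Gly : 1 Aβ) and a reductant (dopamine 5 μM or ascorbic acid) was incubated 60 min at 37 °C in PBS pH 7.4 with test compound. H2O2 was detected with 100 μM deacetylated DCF and 0.1 μM HRP by fluorescence against H2O2 standards.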

In data set [2] the test system is Neuronal cortical cells. Put plainly: Assay for test compound cytoxicity, MTS (Assay 3(d)). Type of data set: cell-based, mouse.
Data set [3] has as its system Aβ in extract of tissue from post mortem human AD brain. Description: Human brain amyloid solubilisation assay (Assay 9, BAS). The class given is biochemical. The protocol: Assay 9. Human Brain Amyloid Solubilisation Assay
This assay was performed in order to assess the ability of a test compound to mobilise Aβ from the insoluble to the soluble phase of an extract of tissue from post mortem human AD brain.
Up to 0.5 g of plaque-bearing cortex without meninges was homogenized using a DIAX 900 homogenizer (Heudolph and Co, Kelheim, Germany) or other suitable device for three 30-second periods at full speed in 2 ml of ice-cold phosphate-buffered saline, pH 7.4. To obtain the phosphate-buffered saline-extractable fraction, the homogenate was centrifuged at 100,000×g for 30 min and the supernatant removed. Alternatively, the tissue was freeze dried then pulverised to form a powder which was then weighed out into aliquots for extraction as above. Supernatant, either freeze-dried and resuspended or in unconcentrated form, was dissolved in 200 μl of Tris-Tricine sodium dodecyl sulfate (SDS) sample buffer pH 8.3 containing 8% SDS, 10% 2-mercaptoethanol. Aliquots (10 μl) were then boiled for 10 minutes before SDS-polyacrylamide gel electrophoresis. The insoluble fraction of the cortical samples was obtained by resuspending the initial pelleted sample in 1 ml of phosphate-buffered saline. A 50-μl aliquot of this suspension was then boiled in […] of sample buffer as above.
Tris-Tricine polyacrylamide gel electrophoresis was performed by loading appropriately diluted samples on to 10% to 20% gradient gels (Novex, San Diego, Calif.) followed by transfer on to 0.2-μm nitrocellulose membrane (Bio-Rad, Hercules, Calif.). Aβ was detected by using monoclonal antibody W02, which detects residues 5 through 8, […] (or another suitable antibody) in conjunction with horseradish peroxidase-conjugated rabbit anti-mouse IgG (Dako, Denmark), and visualized by using enhanced chemiluminescence (eg ECL; Amersham Life Science, Buckinghamshire, UK). Each gel included three lanes containing 0.5, 1, and 2 ng of synthetic Aβ40 (Keck Laboratory, Yale University, New Haven, Conn.) as reference standards.
Blot films were scanned by using a suitable imaging system such as the UVP gel documentation system, and densitometry performed using suitable software, eg UVP Labworks. The dynamic range of the film/scanner was determined by using a step tablet (No. 911ST600, Kodak, Rochester N.Y.), a calibrated film exposed by the manufacturer to provided steps of known increasing intensity. The quantifiable range of signal intensity for densitometric analysis of the mono- and dimeric Aβ bands was based on the comparison with a curve obtained by scanning and densitometry of the step tablet.
All samples were analysed at least twice, and gel loadings and dilutions were adjusted to fit within the quantifiable region of the standard curve. […] The insoluble Aβ being comprised of the pelletable fraction derived from the insoluble amyloid plaque from the above cortical samples and the soluble fraction comprising monomeric and/or oligomeric soluble Aβ.

In data set [4] the test system is Neuronal cortical cells treated with Aβ1-42. Description: Assay for Aβ neurotoxicity and Aβ neuroprotection (Assay 3(c)). The following applies: 20 uM Aβ1-42, 4 days, MTS. The class given is cell-based, mouse.
The mark [5] stands for this setting: Aβ 1-42 with Cu-Gly, read-out: Peroxide IC50.
Where [6] appears, read: BL6J×129sv, mouse, 4 days, 1 uM.
The mark [7] stands for this setting: BL6J×129sv, mouse, 4 days, 10 uM.
[8] abbreviates: solubilising plaques relative to PBS.
Where [9] appears, read: Peroxide IC50, Aβ 1-42 with Cu-Gly.

Structures are written as SMILES. Where “and” joins values, the source holds several entries; their conditions need not be identical. Equal entries are not always repeated. Where two headings read alike, the source gives them in different places.

T1 sequence (P05067 672-713 limits assumed): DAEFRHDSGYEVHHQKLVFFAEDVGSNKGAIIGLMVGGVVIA

As to `Oc1c(I)cc(Cl)c2cccnc12` [compound 1, clioquinol, reference compound], the half-inhibitory concentration (IC50) in data set [1] (setting [5]) was 400 to 500 nM. Besides, in data set [2] (BL6J×129sv, mouse, 4 days), the Test Compound Cytoxicity 0.1 um turned out to be 78%. The “Test Compound Cytoxicity 1 uM” value in data set [2] (setting [6]) came to 90. In data set [2] (setting [7]), the “Test Compound Cytoxicity 10 uM” value turned out to be 77. In data set [3] (setting [8]), the “BAS Score” value is recorded as “++”. The “% inhibition Abeta toxicity” value in data set [4] was 16%.

For `Cc1cnc(NC(=O)c2ccc3cccc(O)c3n2)s1` [compound 953], in data set [1] (setting [5]), the IC50 was < 4240 nM and 620 nM. Besides, in data set [2] (BL6J×129sv, mouse, 4 days), the Test Compound Cytoxicity 0.1 um came to 101%. In addition, the “Test Compound Cytoxicity 1 uM” value in data set [2] (setting [6]) worked out at 85. In addition, in data set [2] (setting [7]), the “Test Compound Cytoxicity 10 uM” value is on record as 53 and the “Viable 10 uM” value was determined as 67.8. For the same compound, in data set [3] (setting [8]), the “BAS Score” value is recorded as “+”. For the same compound, in data set [4], the “% inhibition Abeta toxicity” value was 25%.

Take `CN(c1ccc2cccc(O)c2n1)c1ccc2cccc(O)c2n1` [compound 56]: the half-inhibitory concentration (IC50) in data set [1] (setting [5]) was found to be 700 nM. Also, the Test Compound Cytoxicity 0.1 um in data set [2] (BL6J×129sv, mouse, 4 days) amounted to 108%. The “Test Compound Cytoxicity 1 uM” value in data set [2] (setting [6]) worked out at 74. Also, the “Test Compound Cytoxicity 10 uM” value in data set [2] (setting [7]) is listed as 31. The “BAS Score” value in data set [3] (setting [8]) is listed as “+”. Further, the “% inhibition Abeta toxicity” value in data set [4] is recorded as 17%.

Take `COc1cccc(-c2cc(Cl)c3cccnc3c2O)c1` [compound 810]: in data set [1] (setting [5]), the IC50 is over 10000 nM. For the same compound, in data set [2] (BL6J×129sv, mouse, 4 days), the Test Compound Cytoxicity 0.1 um was found to be 100%. Also, the “Test Compound Cytoxicity 1 uM” value in data set [2] (setting [6]) turned out to be 85. Moreover, the “Test Compound Cytoxicity 10 uM” value in data set [2] (setting [7]) is reported as 57. Also, the “BAS Score” value in data set [3] (setting [8]) is recorded as “+”. The “% inhibition Abeta toxicity” value in data set [4] came out at 11%.

For `Nc1ccc2cccc(O)c2n1` [compound 54], in data set [1] (setting [9]), the IC50 was found to be 1000 nM. Further, the “Cell viability (% viable cells, MTS)” value in data set [2] (1 uM, 4 days, in %) was 97; in data set [2] (10 uM, 4 days, in %) it was 61; in data set [2] (0.1 um, 4 days), 89%. Also, the “Viable 10 uM” value in data set [2] (10 uM test compound, repeated lines = repeat determinations, in %) amounted to 99.57. In addition, the “BAS Score” value in data set [3] was “+”. Moreover, the “% inhibition Abeta toxicity” value in data set [4] is reported as 100%.

As to `O=C(NCCc1ccccn1)c1ccc2cccc(O)c2n1` [compound 950], in data set [1] (setting [5]), the IC50 amounted to 250 nM. This compound also displayed a Test Compound Cytoxicity 0.1 um in data set [2] (BL6J×129sv, mouse, 4 days) of 95%. The “Test Compound Cytoxicity 1 uM” value in data set [2] (setting [6]) is 88. In data set [2] (setting [7]), the “Test Compound Cytoxicity 10 uM” value worked out at 89 and the “Viable 10 uM” value is reported as 92.8. In addition, the “BAS Score” value in data set [3] (setting [8]) is on record as “+”. For the same compound, the “% inhibition Abeta toxicity” value in data set [4] amounted to 5%.

For the compound `Oc1c(Br)cc(-c2ccccc2)c2cccnc12` [compound 806], the half-inhibitory concentration (IC50) in data set [1] (setting [5]) is under 1200 nM. In addition, the Test Compound Cytoxicity 0.1 um in data set [2] (BL6J×129sv, mouse, 4 days) was found to be 99%. Further, in data set [2] (setting [6]), the “Test Compound Cytoxicity 1 uM” value amounted to 78. For the same compound, the “Test Compound Cytoxicity 10 uM” value in data set [2] (setting [7]) is on record as 38. The “BAS Score” value in data set [3] (setting [8]) was “++”. Further, the “% inhibition Abeta toxicity” value in data set [4] stood at 36%.

With `Oc1ccc(/C=C/c2ccc3cccc(O)c3n2)cc1` [compound 89], the IC50 in data set [1] (setting [5]) stood at 3000 nM. For the same compound, the Test Compound Cytoxicity 0.1 um in data set [2] (BL6J×129sv, mouse, 4 days) is 87%. In addition, the “Test Compound Cytoxicity 1 uM” value in data set [2] (setting [6]) is 92. Moreover, in data set [2] (setting [7]), the “Test Compound Cytoxicity 10 uM” value amounted to 101 and the “Viable 10 uM” value was determined as 74.28. In addition, the “BAS Score” value in data set [3] (setting [8]) is “+”. Besides, the “% inhibition Abeta toxicity” value in data set [4] is reported as −31%.

Consider `CCCCN(c1ccc2cccc(O)c2n1)c1ccc2cccc(O)c2n1` [compound 53], for which the 50% inhibitory concentration (IC50) in data set [1] (setting [5]) worked out at 300 nM. In addition, the Test Compound Cytoxicity 0.1 um in data set [2] (BL6J×129sv, mouse, 4 days) came out at 96%. The “Test Compound Cytoxicity 1 uM” value in data set [2] (setting [6]) worked out at 95. In data set [2] (setting [7]), the “Test Compound Cytoxicity 10 uM” value is given as 100 and the “Viable 10 uM” value is 95.8. Further, the “BAS Score” value in data set [3] (setting [8]) is on record as “+”. Also, in data set [4], the “% inhibition Abeta toxicity” value is −75%.

`O=S(=O)(O)c1ccc(O)c2ncccc12` [compound 41]: the IC50 in data set [1] (setting [9]) amounted to 500 nM. The compound further came in with a Test Compound Cytoxicity 0.1 um in data set [2] (BL6J×129sv, mouse, 4 days) of 95%. Further, in data set [2] (setting [6]), the “Test Compound Cytoxicity 1 uM” value was 100. In data set [2] (setting [7]), the “Test Compound Cytoxicity 10 uM” value turned out to be 100 and the “Viable 10 uM” value came to 81.33. Besides, the “BAS Score” value in data set [3] (setting [8]) is recorded as “+”. The “% inhibition Abeta toxicity” value in data set [4] is listed as 12%.

Consider `O=C(Nc1nccs1)c1ccc2cccc(O)c2n1` [compound 952], for which the IC50 in data set [1] (setting [5]) was under 810 nM. Moreover, the Test Compound Cytoxicity 0.1 um in data set [2] (BL6J×129sv, mouse, 4 days) worked out at 98%. The “Test Compound Cytoxicity 1 uM” value in data set [2] (setting [6]) is recorded as 91. Besides, in data set [2] (setting [7]), the “Test Compound Cytoxicity 10 uM” value was 53 and the “Viable 10 uM” value amounted to 99.52. Moreover, in data set [3] (setting [8]), the “BAS Score” value was “+”. The “% inhibition Abeta toxicity” value in data set [4] is 13%.

With `O=C(NCCc1c[nH]cn1)c1ccc2cccc(O)c2n1` [compound 948], in data set [1] (setting [5]), the half-inhibitory concentration (IC50) worked out at 190 nM. The Test Compound Cytoxicity 0.1 um in data set [2] (BL6J×129sv, mouse, 4 days) stood at 100%. Further, the “Test Compound Cytoxicity 1 uM” value in data set [2] (setting [6]) amounted to 79. Further, in data set [2] (setting [7]), the “Test Compound Cytoxicity 10 uM” value came out at 85 and the “Viable 10 uM” value amounted to 106.66. For the same compound, in data set [3] (setting [8]), the “BAS Score” value is recorded as “+”. Further, the “% inhibition Abeta toxicity” value in data set [4] is 9%.

`Oc1c(Cl)cc(Cl)c2cccnc12` [compound 45]: in data set [1] (setting [5]), the IC50 was determined as 700 nM. In addition, in data set [2] (BL6J×129sv, mouse, 4 days), the Test Compound Cytoxicity 0.1 um came to 100%. Moreover, in data set [2] (setting [6]), the “Test Compound Cytoxicity 1 uM” value was determined as 92. Also, the “Test Compound Cytoxicity 10 uM” value in data set [2] (setting [7]) is 67. Moreover, the “BAS Score” value in data set [3] (setting [8]) is given as “++”. The “% inhibition Abeta toxicity” value in data set [4] is on record as 28%.

`Cc1ccccc1-c1cc(Cl)c2cccnc2c1O` [compound 854]: the half-maximal inhibitory concentration (IC50) in data set [1] (setting [5]) was under 780 nM. In data set [2] (BL6J×129sv, mouse, 4 days), the Test Compound Cytoxicity 0.1 um was found to be 94%. Also, the “Test Compound Cytoxicity 1 uM” value in data set [2] (setting [6]) was 81. Further, in data set [2] (setting [7]), the “Test Compound Cytoxicity 10 uM” value worked out at 36. Further, in data set [3] (setting [8]), the “BAS Score” value is given as “+”. In addition, in data set [4], the “% inhibition Abeta toxicity” value stood at 22%.
